The values that follow come from ChEMBL document CHEMBL1148233, “Design and synthesis of macrocyclic inhibitors of phosphatase cdc25B” (Bioorg Med Chem Lett, 2004).

Assay [1] has as its target Serine/threonine-protein phosphatase 2A catalytic subunit alpha isoform (Bos taurus) (UniProt P67774). The assay is described as follows: Selectivity against protein phosphatase 2A.
The target in assay [2] is T1, Tyrosine-protein phosphatase non-receptor type 1 (Homo sapiens) (UniProt P18031).
T1 sequence (whole entry): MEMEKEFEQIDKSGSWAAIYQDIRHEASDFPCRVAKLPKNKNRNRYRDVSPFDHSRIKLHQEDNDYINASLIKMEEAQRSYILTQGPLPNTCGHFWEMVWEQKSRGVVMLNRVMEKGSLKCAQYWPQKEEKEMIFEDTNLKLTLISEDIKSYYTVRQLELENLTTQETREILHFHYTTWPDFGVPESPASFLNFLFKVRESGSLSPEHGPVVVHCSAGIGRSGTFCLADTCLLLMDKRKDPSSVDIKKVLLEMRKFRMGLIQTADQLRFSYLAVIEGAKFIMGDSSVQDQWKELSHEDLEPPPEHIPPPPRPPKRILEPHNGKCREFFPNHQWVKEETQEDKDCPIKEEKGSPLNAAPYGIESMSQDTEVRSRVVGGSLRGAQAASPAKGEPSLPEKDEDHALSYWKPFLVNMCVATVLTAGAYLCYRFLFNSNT
The assay is described as follows: Selectivity against protein tyrosine phosphatase 1B.

The target of assay [3] is Receptor-type tyrosine-protein phosphatase alpha (Homo sapiens) (UniProt P18433). The assay is described as follows: Selectivity against protein tyrosine phosphatase alpha.
Chain of Receptor-type tyrosine-protein phosphatase alpha (Homo sapiens) (P18433 20-802 limits assumed): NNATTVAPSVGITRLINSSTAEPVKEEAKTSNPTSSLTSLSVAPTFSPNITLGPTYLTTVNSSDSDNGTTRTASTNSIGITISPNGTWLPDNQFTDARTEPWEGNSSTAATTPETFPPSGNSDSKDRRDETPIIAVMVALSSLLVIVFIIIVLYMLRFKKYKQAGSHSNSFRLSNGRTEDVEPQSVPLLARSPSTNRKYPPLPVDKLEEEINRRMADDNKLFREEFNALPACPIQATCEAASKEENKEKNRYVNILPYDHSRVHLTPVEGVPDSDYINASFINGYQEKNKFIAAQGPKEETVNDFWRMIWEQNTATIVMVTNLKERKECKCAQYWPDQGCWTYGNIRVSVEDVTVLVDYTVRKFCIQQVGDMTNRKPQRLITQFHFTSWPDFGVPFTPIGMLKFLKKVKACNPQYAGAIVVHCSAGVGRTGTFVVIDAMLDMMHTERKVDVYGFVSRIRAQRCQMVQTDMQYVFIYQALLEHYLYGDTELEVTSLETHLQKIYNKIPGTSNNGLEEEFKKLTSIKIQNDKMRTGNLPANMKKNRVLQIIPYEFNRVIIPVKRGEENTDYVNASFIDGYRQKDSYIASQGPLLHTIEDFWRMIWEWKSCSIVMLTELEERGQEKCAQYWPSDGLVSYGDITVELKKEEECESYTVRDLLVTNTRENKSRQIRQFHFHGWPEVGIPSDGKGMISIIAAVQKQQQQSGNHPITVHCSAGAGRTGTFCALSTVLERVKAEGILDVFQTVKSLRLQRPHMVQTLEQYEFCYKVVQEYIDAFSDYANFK
The target of assay [4] is T2, M-phase inducer phosphatase 2 (Homo sapiens, UniProt P30305).
T2 sequence (P30305 whole entry): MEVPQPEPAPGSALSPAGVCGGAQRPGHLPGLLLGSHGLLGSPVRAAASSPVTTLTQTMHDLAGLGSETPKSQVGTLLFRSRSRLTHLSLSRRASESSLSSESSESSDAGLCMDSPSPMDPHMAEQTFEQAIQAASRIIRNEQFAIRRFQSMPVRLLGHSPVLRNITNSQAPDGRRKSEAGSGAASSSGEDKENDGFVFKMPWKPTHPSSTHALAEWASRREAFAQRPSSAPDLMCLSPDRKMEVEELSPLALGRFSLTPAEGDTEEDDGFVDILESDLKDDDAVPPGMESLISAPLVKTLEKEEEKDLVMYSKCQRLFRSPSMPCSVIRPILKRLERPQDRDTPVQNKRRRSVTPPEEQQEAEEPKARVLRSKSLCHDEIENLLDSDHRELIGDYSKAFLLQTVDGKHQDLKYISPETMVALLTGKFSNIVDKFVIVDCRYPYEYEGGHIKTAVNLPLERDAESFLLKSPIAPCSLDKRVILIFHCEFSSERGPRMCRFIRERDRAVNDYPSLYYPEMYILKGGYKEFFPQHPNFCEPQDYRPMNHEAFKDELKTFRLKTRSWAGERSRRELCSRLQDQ
The assay is described as follows: Inhibitory concentration to human cell division cycle 25B (Cdc25B).

Each structure is given as a SMILES string.

Chain of Serine/threonine-protein phosphatase 2A catalytic subunit alpha isoform (Bos taurus) (P67774 whole entry, canonical isoform): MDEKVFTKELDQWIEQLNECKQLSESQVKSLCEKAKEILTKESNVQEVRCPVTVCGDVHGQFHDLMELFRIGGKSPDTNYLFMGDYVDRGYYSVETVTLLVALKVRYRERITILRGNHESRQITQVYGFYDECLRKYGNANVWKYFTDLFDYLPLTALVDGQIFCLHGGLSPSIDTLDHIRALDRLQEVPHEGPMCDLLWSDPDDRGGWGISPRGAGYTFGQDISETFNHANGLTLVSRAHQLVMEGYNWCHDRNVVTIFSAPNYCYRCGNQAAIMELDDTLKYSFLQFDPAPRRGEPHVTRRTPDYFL

Consider `CC(C)CCC[C@@H](C)[C@H]1CC[C@H]2c3ccc(cc3CO)C[C@@H](O)CCC(C)CCC[C@]12C` (some centres undefined), for which the Selectivity in assay [1], in assay [2] and in assay [3] was greater than 30 µM each time. Besides, the IC50 (as a rule, the concentration that inhibits the measured activity by half) in assay [4] is greater than 30 µM.
Turning to `CC(=O)O[C@H]1CCC(C)CCC[C@]2(C)[C@@H]([C@H](C)CCCC(C)C)CC[C@H]2c2ccc(cc2C(=O)O)C1` (some centres undefined), the Selectivity in assay [1], in assay [2] and in assay [3] was greater than 30 µM throughout. The same compound came in with an IC50 in assay [4] of 7.8 µM.
`CC(=O)O[C@@]1(C)CC/C(C)=C\CC[C@]2(C)[C@@H]([C@H](C)CCCC(C)C)CC[C@H]2c2ccc(cc2C(C)=O)C1`: the Selectivity in assay [1], in assay [2] and in assay [3] was greater than 30 µM in each case. The IC50 in assay [4] is greater than 30 µM.
In assay [4], `CC(=O)O[C@H]1CC[C@](C)(C2CC[C@@]3(C)C(CC[C@@H]3[C@H](C)CCCC(C)C)[C@@H]2CC(=O)O)C(=O)O1` (some centres undefined) came in with an IC50 of 8.7 µM.
With `COC(=O)c1cc2ccc1[C@@H]1CC[C@H]([C@H](C)CCCC(C)C)[C@@]1(C)CC/C=C(/C)CC[C@H](OC(C)=O)C2`, the Selectivity in assay [1], in assay [2] and in assay [3] was greater than 30 µM throughout. The IC50 in assay [4] was greater than 30 µM.
`C/C1=C/CC[C@]2(C)[C@@H]([C@H](C)CCCC(C)C)CC[C@H]2c2ccc(cc2C(=O)O)CC(O)CC1` (some centres undefined): the Selectivity in assay [1], in assay [2] and in assay [3] was greater than 30 µM each time. Further, the IC50 in assay [4] worked out at 7.9 µM.
Consider `C/C1=C/CC[C@]2(C)[C@@H]([C@H](C)CCCC(C)C)CC[C@H]2c2ccc(cc2CO)C[C@@H](O)CC1`, for which the Selectivity in assay [1], in assay [2] and in assay [3] was greater than 30 µM in each case. Also, the IC50 in assay [4] was greater than 30 µM.
`C/C1=C/CC[C@]2(C)[C@@H]([C@H](C)CCCC(C)C)CC[C@H]2c2ccc(cc2C=O)C[C@H](Oc2ccccc2)CC1`: the Selectivity in assay [1], in assay [2] and in assay [3] was greater than 30 µM in each case. Also, the IC50 in assay [4] worked out at 3.5 µM.
`C=CC[C@@]1(O)CC/C(C)=C\CC[C@]2(C)[C@@H]([C@H](C)CCCC(C)C)CC[C@H]2c2ccc(cc2C(=O)O)C1`: the Selectivity in assay [1], in assay [2] and in assay [3] was greater than 30 µM throughout. For the same compound, half-maximal inhibition in assay [4] (IC50) was put at 8.4 µM.
For the compound `CC(=O)O[C@H]1CC/C(C)=C\CC[C@]2(C)[C@@H]([C@H](C)CCCC(C)C)CC[C@H]2c2ccc(cc2C=O)C1`, the Selectivity in assay [1], in assay [2] and in assay [3] was greater than 30 µM throughout. For the same compound, 4.9 µM corresponded to half-maximal inhibition in assay [4] (IC50).
Turning to `COC(=O)C(=O)O[C@H]1CC/C(C)=C\CC[C@]2(C)[C@@H]([C@H](C)CCCC(C)C)CC[C@H]2c2ccc(cc2C(=O)O)C1`, the Selectivity in assay [1], in assay [2] and in assay [3] was greater than 30 µM in each case. In addition, the IC50 in assay [4] was 11 µM.
Consider `Cc1cc2ccc1[C@@H]1CC[C@H]([C@H](C)CCCC(C)C)[C@@]1(C)CCCC(C)CC[C@](C)(O)C2` (some centres undefined), for which the Selectivity in assay [1], in assay [2] and in assay [3] was greater than 30 µM throughout. For the same compound, the IC50 in assay [4] was greater than 30 µM.
Regarding `CC(C)CCC[C@@H](C)[C@H]1CC[C@H]2c3ccc(cc3C(=O)O)CC(O)CCC(C)CCC[C@]12C` (some centres undefined), the Selectivity in assay [1], in assay [2] and in assay [3] was greater than 30 µM in each case. In assay [4], this compound returned an IC50 of 4.9 µM.
In the case of `CC(=O)c1cc2ccc1[C@@H]1CC[C@H]([C@H](C)CCCC(C)C)[C@@]1(C)CC/C=C(/C)CC[C@](C)(O)C2`, the Selectivity in assay [1], in assay [2] and in assay [3] was greater than 30 µM throughout. This compound also registered an IC50 in assay [4] greater than 30 µM.
With `CC(=O)O[C@@]1(C)CC/C(C)=C\CC[C@]2(C)[C@@H]([C@H](C)CCCC(C)C)CC[C@H]2c2ccc(cc2C(C)O)C1` (some centres undefined), the Selectivity in assay [1], in assay [2] and in assay [3] was greater than 30 µM each time. Further, the IC50 in assay [4] is greater than 30 µM.
For `CC(=O)CC(=O)O[C@H]1CC/C(C)=C\CC[C@]2(C)[C@@H]([C@H](C)CCCC(C)C)CC[C@H]2c2ccc(cc2C(=O)O)C1`, the Selectivity in assay [1], in assay [2] and in assay [3] was greater than 30 µM each time. Half-maximal inhibition in assay [4] (IC50) was put at 7.5 µM.
For `C/C1=C/CC[C@]2(C)[C@@H]([C@H](C)CCCC(C)C)CC[C@H]2c2ccc(cc2C(=O)O)C[C@H](Oc2ccccc2)CC1`, the Selectivity in assay [1], in assay [2] and in assay [3] was greater than 30 µM in each case. The compound further showed an IC50 in assay [4] of 7.1 µM.
On to `COC(=O)c1cc2ccc1[C@@H]1CC[C@H]([C@H](C)CCCC(C)C)[C@@]1(C)CC/C=C(/C)CC[C@H](O)C2`, for which the Selectivity in assay [1], in assay [2] and in assay [3] was greater than 30 µM throughout. Further, in assay [4], the IC50 is greater than 30 µM.
In the case of `C=CC[C@]1(O)CC/C(C)=C\CC[C@]2(C)[C@@H]([C@H](C)CCCC(C)C)CC[C@H]2c2ccc(cc2C(=O)O)C1`, the Selectivity in assay [1], in assay [2] and in assay [3] was greater than 30 µM throughout. The compound also had an IC50 in assay [4] of 9.3 µM.
`CC(=O)O[C@@]1(C)CCC(C)CCC[C@]2(C)[C@@H]([C@H](C)CCCC(C)C)CC[C@H]2c2ccc(cc2CN2CCOCC2)C1` (some centres undefined): the Selectivity in assay [1], in assay [2] and in assay [3] was greater than 30 µM each time. Also, the IC50 in assay [4] was greater than 30 µM.
Compound `C/C1=C/CC[C@]2(C)[C@@H]([C@H](C)COC(=O)c3ccccc3)CC[C@H]2c2ccc(cc2C(=O)O)C[C@@H](O)CC1` showed an IC50 in assay [4] of 6.5 µM.
As to `CC(=O)O[C@H]1CC/C(C)=C\CC[C@]2(C)[C@@H]([C@H](C)CCCC(C)C)CC[C@H]2c2ccc(cc2CO)C1`, the Selectivity in assay [1], in assay [2] and in assay [3] was greater than 30 µM in each case. In assay [4], this compound showed an IC50 greater than 30 µM.
As for `C/C1=C/CC[C@]2(C)[C@@H]([C@H](C)CCCC(C)C)CC[C@H]2c2ccc(cc2C(=O)O)CC(=O)CC1`, the Selectivity in assay [1], in assay [2] and in assay [3] was greater than 30 µM each time. This compound also yielded an IC50 in assay [4] of 8.5 µM.
Regarding `CC(C)CCC[C@@H](C)[C@H]1CC[C@H]2c3ccc(cc3C(=O)O)CC(=O)CCC(C)CCC[C@]12C` (some centres undefined), the Selectivity in assay [1] was 25 µM; in assay [2] it was greater than 30 µM; in assay [3], greater than 30 µM. In addition, the IC50 in assay [4] is 3.4 µM.
For `CC(=O)O[C@H]1CC/C(C)=C\CC[C@]2(C)[C@@H]([C@H](C)CCCC(C)C)CC[C@H]2c2ccc(cc2C(=O)O)C1`, the Selectivity in assay [1], in assay [2] and in assay [3] was greater than 30 µM each time. Moreover, the IC50 in assay [4] came out at 5.6 µM.
On to `COCc1cc2ccc1[C@@H]1CC[C@H]([C@H](C)CCCC(C)C)[C@@]1(C)CC/C=C(/C)CC[C@](C)(OC(C)=O)C2`, for which the Selectivity in assay [1], in assay [2] and in assay [3] was greater than 30 µM throughout. Further, the IC50 in assay [4] is 29 µM.
As to `C/C1=C/CC[C@]2(C)[C@@H]([C@H](C)CCCC(C)C)CC[C@H]2c2ccc(cc2C=O)C[C@@H](O)CC1`, the Selectivity in assay [1], in assay [2] and in assay [3] was greater than 30 µM in each case. In addition, in assay [4], the IC50 was determined as 11 µM.
As to `CC(=O)O[C@@]1(C)CCC(C)CCC[C@]2(C)[C@@H]([C@H](C)CCCC(C)C)CC[C@H]2c2ccc(cc2C)C1` (some centres undefined), the Selectivity in assay [1], in assay [2] and in assay [3] was greater than 30 µM each time. This compound also came in with an IC50 in assay [4] of 11 µM.
For `C/C1=C/CC[C@]2(C)[C@@H]([C@H](C)CCCC(C)C)CC[C@H]2c2ccc(cc2C(C)O)C[C@@](C)(O)CC1` (some centres undefined), the Selectivity in assay [1], in assay [2] and in assay [3] was greater than 30 µM throughout. Further, the half-inhibitory concentration (IC50) in assay [4] was greater than 30 µM.
As to `COC(=O)c1cc2ccc1[C@@H]1CC[C@H]([C@H](C)CCCC(C)C)[C@@]1(C)CC/C=C(/C)CCC(=O)C2`, the Selectivity in assay [1], in assay [2] and in assay [3] was greater than 30 µM throughout. In assay [4], the IC50 is greater than 30 µM.
